Patent publication US8546404B2, “Compounds that are ERK inhibitors” (Merck Sharp & Dohme, priority 2005, dated 2013)
Values joined by “and” are separate entries in the source; they are usually repeats but may differ in a detail not shown here. Equal entries are not always repeated.

Molecular target: fully phosphorylated, active Mouse ERK2 protein (Mus musculus (Mouse), UniProt P63085)
Assay: Active ERK2 Assay (IMAP format)
Type: biochemical
Conditions: read-out: AERK2 IC50
Experimental: Activated ERK2 activity was also determined in the IMAP assay format using the procedure outlined above. […] Reactions proceeded for 30 minutes before termination by addition of 60 μl IMAP detection beads in binding buffer. Plates were read as above after 30 minute binding equilibration.

Sequence of fully phosphorylated, active Mouse ERK2 protein (P63085 whole entry): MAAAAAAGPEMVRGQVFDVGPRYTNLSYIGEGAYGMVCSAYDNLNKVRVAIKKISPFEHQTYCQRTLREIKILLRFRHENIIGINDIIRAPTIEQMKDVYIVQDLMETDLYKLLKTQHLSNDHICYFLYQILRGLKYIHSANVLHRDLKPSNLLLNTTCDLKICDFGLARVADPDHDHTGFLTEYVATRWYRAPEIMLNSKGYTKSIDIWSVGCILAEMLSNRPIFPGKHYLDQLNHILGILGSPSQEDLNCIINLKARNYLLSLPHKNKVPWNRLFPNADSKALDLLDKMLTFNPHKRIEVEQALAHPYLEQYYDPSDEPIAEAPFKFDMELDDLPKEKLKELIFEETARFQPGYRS

Structure (SMILES)	IC50
CO[C@@]1(C(=O)Nc2ccc3[nH]nc(-c4ccnc(C(F)F)c4)c3c2)CCN(CC(=O)N2CC=C(c3ccc(-c4ncccn4)cc3)CC2)C1 [Example 785]	0.16 to 18 nM
COc1cc(C2CCN(C(=O)CN3CC[C@@](OC)(C(=O)Nc4ccc5[nH]nc(-c6ccnc(C7CC7)c6)c5c4)C3)CC2)ccc1-c1ncccn1 [Example 672]	0.16 to 18 nM
CO[C@@]1(C(=O)Nc2ccc3[nH]nc(-c4cc[n+]([O-])c(C5CC5)c4)c3c2)CCN(CC(=O)N2CCC(c3ccc(-c4ncccn4)cc3)CC2)C1 [Example 669]	0.16 to 18 nM
O=C(Nc1ccc2[nH]nc(-c3ccncc3)c2c1)[C@@H]1CCN(CC(=O)N2C[C@@H]3C[C@H]2CN3c2ccc(-c3ncc(F)cn3)cc2)C1 [Example 183]	0.16 to 18 nM and 0.16 to 1.5 nM and 0.16 nM
O=C(Nc1ccc2[nH]nc(-c3ccncc3)c2c1)[C@@H]1CCN(CC(=O)N2CCN(c3ccc(-c4ncc(F)cn4)cc3)CC2)C1 [Example 186]	0.16 to 18 nM and 0.16 to 1.5 nM and 0.78 nM
CO[C@@]1(C(=O)Nc2ccc3[nH]nc(-c4ccnc(C(F)F)c4)c3c2)CCN(CC(=O)N2CCC(C)(c3ccc(-c4ncccn4)cc3)CC2)C1 [Example 679]	0.16 to 18 nM
CO[C@@]1(C(=O)Nc2ccc3[nH]nc(-c4ccnc(C5CC5)c4)c3c2)CCN(CC(=O)N2CCC(C)(c3ccc(-c4ncccn4)cc3)CC2)C1 [Example 680]	0.16 to 18 nM
CO[C@@]1(C(=O)Nc2ccc3[nH]nc(-c4ccc(OCCO)cc4)c3c2)CCN(CC(=O)N2CC=C(c3ccc(-c4ncccn4)cc3)CC2)C1 [Example 822]	0.16 to 18 nM
CO[C@@]1(C(=O)Nc2ccc3[nH]nc(-c4ccc(F)c(CO)c4)c3c2)CCN(CC(=O)N2CCC(c3ccc(-c4ncccn4)cc3)CC2)C1 [Example 794]	0.16 to 18 nM
COCCOc1ccc(-c2n[nH]c3ccc(NC(=O)[C@]4(OC)CCN(CC(=O)N5CC=C(c6ccc(-c7ncccn7)cc6)CC5)C4)cc23)cc1F [Example 749]	0.16 to 18 nM
Cc1cnc(-c2ccc(N3CCN(C(=O)CN4CCC(NC=O)(C(=O)Nc5ccc6[nH]nc(-c7ccc(F)cc7)c6c5)C4)[C@H](C)C3)cc2)nc1 (stereo in doubt) [Example 362, 3-Formylamino-1-(2-{2-methyl-4-[4-(5-methyl-pyrimidin-2-yl)-phenyl]-piperazin-1-yl}-2-oxo-ethyl)-pyrrolidine-3-carboxylic acid [3-(4-fluoro-phenyl)-1H-indazol-5-yl]-amide]	0.16 to 18 nM
CON(C(=O)[C@@H]1CCN(CC(=O)N2CC=C(c3ccc(-c4ncccn4)cc3)CC2)C1)c1ccc2[nH]nc(-c3ccncc3)c2c1 [Example 611]	0.16 to 18 nM
O=C(CN1CCC(CF)(C(=O)Nc2ccc3[nH]nc(-c4ccncc4)c3c2)C1)N1C[C@@H]2C[C@H]1CN2c1ccc(-c2ncccn2)cc1 (some centres unmarked) [Example 269]	0.16 to 18 nM
CO[C@@]1(C(=O)Nc2ccc3[nH]nc(-c4ccc(F)c(NCCO)c4)c3c2)CCN(CC(=O)N2CC=C(c3ccc(-c4ncccn4)cc3)CC2)C1 [Example 757]	0.16 to 18 nM
O=C(Nc1ccc2[nH]nc(-c3ccncc3)c2c1)[C@@H]1CCN(CC(=O)N2CCc3ncccc3C2)C1 [Example 333]	0.16 to 18 nM
C=Cc1cnc(N2C[C@@H]3C[C@H]2CN3C(=O)CN2CC[C@@H](C(=O)Nc3ccc4[nH]nc(-c5ccncc5)c4c3)C2)nc1 [Example 250]	0.16 to 18 nM
C=CCC1(C(=O)Nc2ccc3[nH]nc(-c4ccncc4)c3c2)CCN(CC(=O)N2CCN(c3ccc(-c4ncc(F)cn4)cc3)CC2)C1 (centres unmarked) [Example 294]	0.16 to 18 nM
CCCCNC(=O)c1n[nH]c2ccc(NC(=O)[C@@H]3CCN(CC(=O)N4CCN(c5ccc(-c6ncccn6)cc5)CC4)C3)cc12 [Example 86]	0.16 to 18 nM
CO[C@@]1(C(=O)Nc2ccc3[nH]nc(-c4ccc(NCCO)cc4)c3c2)CCN(CC(=O)N2CC=C(c3ccc(-c4ncccn4)cc3)CC2)C1 [Example 758]	0.16 to 18 nM
CO[C@@]1(C(=O)Nc2ccc3[nH]nc(-c4ccc(F)cc4)c3c2)CCN(CC(=O)N2CC=C(c3ccc(-c4ncc(N)cn4)cc3)CC2)C1 [Example 823]	0.16 to 18 nM
COCC1(C(=O)Nc2ccc3[nH]nc(-c4ccc(F)cc4)c3c2)CCN(CC(=O)N2CCN(c3ccc(-c4ncccn4)cc3)CC2)C1 (centres unmarked) [Example 125, 3-methoxymethyl-1-{2-oxo-2-[4-(4-pyrimidin-2-yl-phenyl)-piperazin-1-yl]-ethyl}-pyrrolidine-3-carboxylic acid [3-(4-fluoro-phenyl)-1H-indazol-5-yl]-amide]	0.16 to 18 nM
CO[C@@]1(C(=O)Nc2ccc3[nH]nc(-c4ccc(N(C)C)cc4)c3c2)CCN(CC(=O)N2CCC(c3ccc(-c4ncccn4)cc3)CC2)C1 [Example 793]	0.16 to 18 nM
COCC1(C(=O)Nc2ccc3[nH]nc(-c4ccncc4)c3c2)CCN(CC(=O)N2CC=C(c3nccs3)CC2)C1 (centres unmarked) [Example 306]	0.16 to 18 nM
CO[C@@]1(C(=O)Nc2ccc3[nH]nc(-c4ccc(F)cc4)c3c2)CCN(CC(=O)N2CC=C(c3ncc(-c4ncccn4)s3)CC2)C1 [Example 776]	0.16 to 18 nM

Structure (SMILES)	IC50
C[C@@H]1CN(c2ccc(-c3ncccn3)cn2)CCN1C(=O)CN1CCC(C(=O)Nc2ccc3[nH]nc(-c4ccc(F)cc4)c3c2)C1 (some centres unmarked) [Example 100]	0.16 to 18 nM and 0.16 to 1.5 nM
COCC1(C(=O)Nc2ccc3[nH]nc(-c4ccncc4)c3c2)CCN(CC(=O)N2C[C@@H]3C[C@H]2CN3c2ccc(-c3ncc(F)cn3)cc2)C1 (some centres unmarked) [Example 303]	0.16 to 18 nM
O=C(CN1CCC(CF)(C(=O)Nc2ccc3[nH]nc(-c4ccncc4)c3c2)C1)N1CCN(c2nccs2)CC1 (centres unmarked) [Example 282]	0.16 to 18 nM
C=CCC1(C(=O)Nc2ccc3[nH]nc(-c4ccncc4)c3c2)CCN(CC(=O)N2CCN(c3ccc(-c4cnccn4)cc3)CC2)C1 (centres unmarked) [Example 261]	0.16 to 18 nM and 0.16 to 1.5 nM
O=C(Nc1ccc2[nH]nc(-c3ccc(F)cc3)c2c1)[C@@H]1CCN(CC(=O)N2CCN(c3ccc(-c4ncccn4)cc3)CC2)C1 (stereo in doubt) [Example 1, 1-{2-Oxo-2-[4-(4-pyrimidin-2-yl-phenyl)-piperazin-1-yl]-ethyl}-pyrrolidine-3-carboxylic acid [3-(4-fluoro-phenyl)-1H-indazol-5-yl]-amide]	0.16 to 18 nM
CNC(=O)c1n[nH]c2ccc(NC(=O)[C@@H]3CCN(CC(=O)N4CC=C(c5nccs5)CC4)C3)cc12 [Example 168]	0.16 to 18 nM
COCc1cc(-c2n[nH]c3ccc(NC(=O)[C@]4(OC)CCN(CC(=O)N5CC=C(c6ccc(-c7ncccn7)cc6F)CC5)C4)cc23)ccc1F [Example 747]	0.16 to 18 nM
O=C(CN1CCC(CN2CCOCC2)(C(=O)Nc2ccc3[nH]nc(-c4ccncc4)c3c2)C1)N1CCN(c2nccs2)CC1 (centres unmarked) [Example 286]	0.16 to 18 nM
O=C(Nc1ccc2[nH]nc(-c3c[nH]cn3)c2c1)[C@@H]1CCN(CC(=O)N2CCN(c3ccc(-c4ncccn4)cc3)CC2)C1 (stereo in doubt) [Example 61, 1-{2-Oxo-2-[4-(4-pyrimidin-2-yl-phenyl)-piperazin-1-yl]-ethyl}-pyrrolidine-3-carboxylic acid [3-(1H-imidazol-4-yl)-1H-indazol-5-yl]-amide]	0.16 to 18 nM
O=C(CN1CCC(CF)(C(=O)Nc2ccc3[nH]nc(-c4ccc(F)cc4)c3c2)C1)N1C[C@@H]2C[C@H]1CN2c1ccc(-c2ncccn2)cc1 (some centres unmarked) [Example 251]	0.16 to 18 nM
CC(C)(C)OC(=O)N1CCC(O)(c2nccs2)CC1 [Example 132, 4-Hydroxy-4-thiazol-2-yl-piperidine-1-carboxylic acid tert-butyl ester]	0.16 to 18 nM
CCNc1nnc(-c2ccc(C3CCN(C(=O)CN4CC[C@@](OC)(C(=O)Nc5ccc6[nH]nc(-c7ccc(F)cc7)c6c5)C4)CC3)cc2)o1 (stereo in doubt) [Example 623, 1-(2-{4-[4-(5-Ethylamino-[1,3,4]oxadiazol-2-yl)-phenyl]-piperidin-1-yl}-2-oxo-ethyl)-3-methoxy-pyrrolidine-3-carboxylic acid [3-(4-fluoro-phenyl)-1H-indazol-5-yl]-amide]	0.16 to 18 nM
CO[C@@]1(C(=O)Nc2ccc3[nH]nc(-c4ccc5c(c4)OCO5)c3c2)CCN(CC(=O)N2CCN(c3ccc(-c4ncccn4)cn3)C[C@H]2C)C1 [Example 799]	0.16 to 18 nM
CO[C@@]1(C(=O)Nc2ccc3[nH]nc(-c4ccnc(C(F)(F)F)c4)c3c2)CCN(CC(=O)N2CC=C(c3ccc(-c4ncccn4)cc3F)CC2)C1 [Example 682]	0.16 to 18 nM
CS[C@@]1(C(=O)Nc2ccc3[nH]nc(-c4ccc(F)cc4)c3c2)CCN(CC(=O)N2CCN(c3ccc(-c4ncccn4)cc3)CC2)C1 [Example 647]	0.16 to 18 nM
CO[C@@]1(C(=O)Nc2ccc3[nH]nc(-c4ccc(F)cc4)c3c2)CCN(CC(=O)N2CC=C(c3ccc(-c4ncccn4)cc3F)CC2)C1 [Example 606]	0.16 to 18 nM
CO[C@@]1(C(=O)Nc2ccc3[nH]nc(-c4ccc(F)c(F)c4)c3c2)CCN(CC(=O)N2CCC(c3ccc(-c4ncccn4)cc3)CC2)C1 [Example 792]	0.16 to 18 nM
CO[C@@]1(C(=O)Nc2ccc3[nH]nc(-c4cn[nH]c4)c3c2)CCN(CC(=O)N2CC=C(c3ccc(-c4ncccn4)cc3)CC2)C1 [Example 796]	0.16 to 18 nM
CC(=O)N/N=C(\C)C1(C(=O)Nc2ccc3[nH]nc(-c4ccc(F)cc4)c3c2)CCN(CC(=O)N2CCN(c3ccc(-c4ncccn4)cn3)C[C@H]2C)C1 (stereo in doubt) [Example 358, 3-[1-(Acetyl-hydrazono)-ethyl]-1-{2-[2-methyl-4-(5-pyrimidin-2-yl-pyridin-2-yl)-piperazin-1-yl]-2-oxo-ethyl}-pyrrolidine-3-carboxylic acid [3-(4-fluoro-phenyl)-1H-indazol-5-yl]-amide]	0.16 to 18 nM
CO[C@@]1(C(=O)Nc2ccc3[nH]nc(-c4ccc(F)cc4)c3c2)CCN(CC(=O)N2CC=C(c3ccc(-c4ncccn4)s3)CC2)C1 [Example 737]	0.16 to 18 nM
COCC1(C(=O)Nc2ccc3[nH]nc(-c4ccncc4)c3c2)CCN(CC(=O)N2CCN(c3ccc(-c4ncccn4)cc3)CC2)C1 (centres unmarked) [Example 264]	0.16 to 18 nM
COCCOc1ccc(-c2n[nH]c3ccc(NC(=O)[C@]4(OC)CCN(CC(=O)N5CC=C(c6ncc(-c7ncccn7)s6)CC5)C4)cc23)cc1 [Example 765]	0.16 to 18 nM
CO[C@@]1(C(=O)Nc2ccc3[nH]nc(-c4cc[n+]([O-])c(C5CC5)c4)c3c2)CCN(CC(=O)N2CC=C(c3ccc(-c4ncccn4)cc3)CC2)C1 [Example 670]	0.16 to 18 nM
